Tested on: spinal cord-injured rats
Assay: Inhibitory activity on detrusor hyperreflexia (cystometry test)
Format: in vivo, rat
Details: 1 mg/kg p.o., average ± standard error
Experimental: The experiment was carried out according to the method of Cheng, et al. [Brain Res., Vol. 678, pp. 40-48 (1995)].
Female SD rats of 8 to 10 weeks of age (supplied by Japan SLC) were used in the test. Five to seven animals of these rats were put in each metal cage and reared by allowing them to freely take commercially available chow and water, in an animal room at room temperature between 19 and 25° C. and humidity between 30 and 70% under illumination for 12 hours (from 7:00 a.m. to 7:00 p.m.) per day.
An operation of spinal cord injury was performed in the rats. Each animal was anesthetized with diethyl ether and the skin of the back side thoracic cord part was incised. A laminectomy at the 7th to 8th thoracic vertebrae level was performed. Then, the thoracic cord at the T7-T8 segments was macroscopically cut and a section of spinal cord (about 5 mm) was removed, and the wound cavity of the removed part was filled with oxidized regenerated cellulose for hemostasis. The incised part was sutured with a surgical silk. After the spinal cord injury operation, urine was expressed manually twice per day (at 8:00-9:00 and 18:00-19:00) for about 3 weeks until autonomic micturition developed. An antibiotic (ampicillin, Sigma. Chemical Co.) was intramuscularly administered to the animals at a dose of 150 mg/kg once to twice per day for about 2 weeks.
Four to five weeks after the spinal cord injury, the rats were subjected to bladder catheterization. Under diethyl ether anesthesia, the bladder was exposed by midline incision of the abdomen. […] The bladder catheter was fixed with a surgical silk ligature and indwelled. The other end of the catheter was exposed subcutaneously from the back of the neck, plugged and then fixed to the skin with a surgical thread.
Four to six days after the bladder catheterization, a cystometry test was performed. The rats were put in a Bollman cage (Natsume Seisakusho Co., Ltd.) and a three-way cock was connected to the bladder catheter, one end of the cock was connected to a pressure transducer (Nihon Kohden Corp.) and the other end was connected to a 50-mL syringe (Terumo Corp.) arranged to an infusion pump (Harvard Apparatus, Inc.) for physiological saline infusion. The intravesical pressure signal from the pressure transducer was amplified with a strain pressure amplifier (AP-601G, Nihon Kohden Corp.) connected thereto, and was recorded on a thermal array recorder (RTA-1200, Nihon Kohden Corp.) via a polygraph system (RMP-6008, Nihon Kohden Corp.) containing the above amplifier. Sixty to ninety minutes after the completion of the preparation for the measurement, a room temperature physiological saline was infused into the bladder at a flow rate of 10 mL/h for 30 minutes, the occurence of micturition contractions was confirmed. Thirty minutes later, the infusion of physiological saline was carried out again for 30 minutes, and the intravesical pressure was measured to be used as the pre-administration value. Each of Compounds 1 to 6 was suspended in a 0.5 w/v % aqueous solution of methylcellulose at a concentration of 1 mg/mL suspension. The suspension was further diluted with a 0.5 w/v % aqueous solution of methylcellulose to prepare a suspension or solution for the administration at the intended concentration, which was then orally administered to the animals at a volume of 1 mL/kg. The period of 1, 3 and 5 hours after the dosing was used as the measuring time after the administration of the solvent or a compound tested, and the intravesical infusion of a physiological saline was carried out during a duration of 15 minutes around each measuring time (i.e. from 45 to 75 minutes, from 165 to 195 minutes and from 285 to 315 minutes after the administration of the compound).
Micturition contraction was measured as an index of the voiding function and pre-micturition contraction was measured as an index of detrusor hyperreflexia. […]

SMILES | micturition contractions (relative value, before administration = 100) (after 1 hr.) | pre-micturition contractions (relative value, before administration = 100) (after 1 hr.) | micturition contractions (relative value, before administration = 100) (after 3 hrs.) | pre-micturition contractions (relative value, before administration = 100) (after 3 hrs.) | micturition contractions (relative value, before administration = 100) (after 5 hrs.) | pre-micturition contractions (relative value, before administration = 100) (after 5 hrs.)
C[C@](O)(C(=O)Nc1cccc2c1C(=O)c1sccc1CO2)C(F)(F)F [Compound 4] | 95.5 ± 8.2% | 58.6% | 106.2 ± 7.0% | 44.4% | 121.4 ± 9.5% | 42.6%
CC(C)(C)C(=O)Nc1cccc2c1C(=O)c1sccc1CO2 [Compound 5] | 96.8 ± 4.4% | 86.2 ± 10.2% | 109.4 ± 6.4% | 57.3 ± 9.2% | 113.9 ± 15.4% | 44.8 ± 6.1%
CC(O)(C(=O)Nc1ccc(Cl)c2c1C(=O)c1sccc1CS2(=O)=O)C(F)(F)F (stereo not drawn) [Compound 6] | 96.8 ± 4.4% | 62.7 ± 9.3% | 109.4 ± 6.4% | 87.9 ± 16.9% | 113.9 ± 15.4% | 69.0 ± 11.8%
